Laboratory results as given in EP3050567B1, “COMPOUND FOR ACTIVATING AMPK AND USES THEREOF” (Energenesis Biomedical Co., Ltd., priority 2013, dated 2015).
pIC50: −log10 of the molar value.

Legend:
[1] = system: 6-mm full-thickness excisional skin wounds; test: Wound healing and scar formation, excisional skin wounds in mice; assay type: in vivo, C57BL/6J mice; conditions: 14 days
Protocol: C57BL/6J mice were maintained at 22°C under a 12-h light/dark cycle. The experiments were performed with 12-week-old mice. After anesthetized by an intraperitoneal injection of ketamine (500 mg/kg) and xylazine (100 mg/kg), 6-mm full-thickness excisional skin wounds was made on the backs of mice using 6-mm skin biopsy punches. Immediately after wounding, 10-1200 µM of adenine or saline alone was applied to the wound bed. The skin wounds were then covered by semipermeable transparent dressing and fixed to the skin. The mice were treated with adenine or vehicle for 14 days and then sacrificed. The scar formation is assessed by Masson's trichrome staining (the tissue was fixed by 4% paraformaldehyde).

[2] = system: TNBS-induced inflammatory bowel disease (IBD) mice model; test: TNBS induced inflammation in vivo (relapsing colitis); design: species or system C57BL/6J mice; conditions: daily IP adenine 0.01, 0.1, 5 or 30 mg/kg
Protocol: To further evaluate the effects of adenine on inflammatory response, TNBS-induced inflammatory bowel disease (IBD) mice model was used. C57BL/6J mice were maintained at 22° C, under a 12-h light/dark cycle. Relapsing colitis was induced with five escalating doses of TNBS, 0.5 mg, 0.75 mg, 1.0 mg, 1.25 mg, and 1.5 mg, in 50% ethanol were administered respectively for 0.1 mL per mouse weekly. After the third administration of TNBS, daily intraperitoneal injection of adenine (0.01, 0.1, 5 or 30 mg/kg body weight) or saline were given to mice. Two days after the fifth TNBS administration, mice were sacrificed. The inflammatory cytokines including TNF, INFγ and IL-17 from colonic lysates were evaluated by enzyme-linked immunosorbent assays.

[3] = system: HT29; test: Cancer cell growth inhibition assay, HT29; assay type: cell-based; conditions: Homo sapiens, HT-29; HT29 cell proliferation, 72 h, cell counting
Protocol: Human liver hepatocellular carcinoma cell line Hep G2, human breast adenocarcinoma cell line MCF7 and human colon adenocarcinoma grade II cell line HT29 were used to evaluate the effects of adenine on cell proliferation. Those cell lines were obtained from ATCC and were cultured in high-glucose Dulbecco's modified Eagle's medium (DMEM) containing 10% fetal bovine serum (FBS), 4 mM L-glutamine, 2 mM sodium pyruvate and 1% penicillin/streptomycin (Invitrogen GibcoBRL, Carlsbad, Calif., USA) at 37°C under 5% CO2. Cells were plated at 1 × 10^5 per well (6-well plate). Twenty-four hours after plating, cells were treated with indicated concentration of adenine for 72 h and then followed by cell counting. Cells were detached using trypsin-EDTA solution and stained with trypan blue. The living cells were counted using hemocytometer.

[4] = system: 3T3 cells; test: Fibroblast proliferation assay (trypan blue cell counting); assay type: cell-based, mouse; conditions: 72 h, mean±SEM of three experiments
Protocol: […] fibro blast cell line 3T3 were cultured in high-glucose Dulbecco's modified Eagle's medium (DMEM) containing 10% fetal bovine serum (FBS), 4 mM L-glutamine, 2 mM sodium pyruvate and 1% penicillin/streptomycin (Invitrogen GibcoBRL, Carlsbad, Calif., USA) at 37°C under 5% CO2. For cell proliferation assay, 3T3 cells were plated at 1 × 10^5 per well (6-well plate). Twenty-four hours after plating, cells were treated with indicated concentration of adenine for 72 h and the number of viable cells was counted. Cells were detached using trypsin-EDTA solution and stained with trypan blue. The living cells were counted using hemocytometer.

[5] = colonic lysates, dose-dependent, vs non-adenine treated mice

Nc1ncnc2nc[nH]c12 [Adenine, adenine]
extent of closure ([1]; topical 10-1200 µM adenine on wound bed, dose-dependent, vs control mice): significantly greater | scar width ([1]; topical 10-1200 µM adenine, histological examination, vs vehicle treated wounds): significantly decreased | body weight loss caused by TNBS [2]: rescued the body weight loss | level of IL-17 in colon [2, 5]: significantly reduced | level of INFγ in colon [2, 5]: significantly reduced | level of TNF in colon [2, 5]: significantly reduced | pIC50 [3]: 3.27 | Cellnumber (% to control) ([4]; adenine 10 microM): 91±2.7 % to control | Cellnumber (% to control) ([4]; adenine 50 microM): 73±8.1 % to control | Cellnumber (% to control) ([4]; adenine 100 microM): 64±5.3 % to control | Cellnumber (% to control) ([4]; adenine 200 microM): 48±2.8 % to control | Cellnumber (% to control) ([4]; adenine 500 microM): 33±6.4 % to control | Cellnumber (% to control) ([4]; adenine 1000 microM): 27±11.3 % to control
